From patent publication US20040152903A1, “6-chloro-3-pyridylmethylpropylamine derivatives, preparation process thereof and bactericides” (priority 2004, published 2004)

What was measured:
Experiment in all cases: Antifungal activity test (PDA plate, hypha extension inhibition)
Type in all cases: cell-based
Leptosphaeria nodorum = details: 0.8 ppm in PDA culture medium
Protocol: (Antifungal Activity Test against Various Pathogenic Fungi) For each of the compounds I-1 to 27 of the present invention and the comparative compounds (a) to (d), (m-1) and (m-3), 20 mg was weighed and dissolved in 2 ml of dimethylsulfoxide, and a double dilution row in 10 steps was prepared by further using dimethylsulfoxide. A 0.6 ml portion of these solutions was each added to 60 ml of a PDA culture medium (potato-dextrose-agar culture medium) at about 60° C., they were well mixed in a 100 ml Erlenmeyer flask, the solution was poured into a schale and was solidified, the plate culture media containing the compounds according to the present invention with final concentrations of 100, 50.0, 25.0, 12.5, 6.3, 3.2, 1.6, 0.8, 0.4 and 0.2 mg/l were prepared. On the other hand, the specimen bacteria cultured on the plate culture media beforehand was punched by a 4 mm diameter cork borer, and was inoculated on the plate culture media containing the aforementioned chemicals. After the inoculation, the bacteria were cultured at the optimum growth temperature of each bacterium for 1 to 7 days (for this optimum growth temperature, LIST OF CULTURES 1996 Microorganisms 10th edition published by Fermentation Research Institute (Foundation) can be referred to.), and the growth of the bacteria was measured by the diameter of a colony. […] R=100(dc−dt)/dc (Equation 3) [wherein each symbol is shown as follows: R=Hypha extension inhibition rate (%), dc=Diameter of colony on no-treated plate, dt=Diameter of colony on chemical-treated plate.] The results obtained above was evaluated in 5 steps in accordance with the following examination scale. <Growth Inhibition> 5: Hypha extension inhibition rate of 90% or more 4: Hypha extension inhibition rate of from 70% to less than 90% 3: […] 2: […] In addition, the abbreviations in Table 10 are as follows: L.n: Leptosphaeria nodorum

Venturia inaequalis = details: 3.2 ppm in PDA culture medium
Protocol: (§1) (Antifungal Activity Test against Various Pathogenic Fungi) For each of the compounds I-1 to 27 of the present invention and the comparative compounds (a) to (d), (m-1) and (m-3), 20 mg was weighed and dissolved in 2 ml of dimethylsulfoxide, and a double dilution row in 10 steps was prepared by further using dimethylsulfoxide. A 0.6 ml portion of these solutions was each added to 60 ml of a PDA culture medium (potato-dextrose-agar culture medium) at about 60° C., they were well mixed in a 100 ml Erlenmeyer flask, the solution was poured into a schale and was solidified, the plate culture media containing the compounds according to the present invention with final concentrations of 100, 50.0, 25.0, 12.5, 6.3, 3.2, 1.6, 0.8, 0.4 and 0.2 mg/l were prepared. On the other hand, the specimen bacteria cultured on the plate culture media beforehand was punched by a 4 mm diameter cork borer, and was inoculated on the plate culture media containing the aforementioned chemicals. After the inoculation, the bacteria were cultured at the optimum growth temperature of each bacterium for 1 to 7 days (for this optimum growth temperature, LIST OF CULTURES 1996 Microorganisms 10th edition published by Fermentation Research Institute (Foundation) can be referred to.), and the growth of the bacteria was measured by the diameter of a colony. […]

Microdochium nivale = details: 3.2 ppm in PDA culture medium
Protocol: as §1

SMILES | Growth Inhibition L.n (0.8) (Leptosphaeria nodorum) | Growth Inhibition V.i (3.2) (Venturia inaequalis) | Growth Inhibition M.n (3.2) (Microdochium nivale)
CC(Cc1ccc(C(F)(F)F)c(F)c1F)CN(C)Cc1ccc(Cl)nc1 (stereo not drawn) [Compound I-10] | 4 (Hypha extension inhibition rate of from 70% to less than 90%) | 4 (Hypha extension inhibition rate of from 70% to less than 90%) | 4 (Hypha extension inhibition rate of from 70% to less than 90%)
CC(Cc1ccc2c(c1)OC(F)(F)O2)CN(C)Cc1ccc(Cl)nc1 (stereo not drawn) [Compound I-24] | 5 (Hypha extension inhibition rate of 90% or more) | 4 (Hypha extension inhibition rate of from 70% to less than 90%) | 4 (Hypha extension inhibition rate of from 70% to less than 90%)
